Measurements taken from PMC3377626, “Role of mprF1 and mprF2 in the Pathogenicity of Enterococcus faecalis” (PLoS ONE, 2012).
≈ marks a conversion by molar mass, not a printed value. No end group written: not given here.

What was measured:
[1] = tested on: 12030ΔmprF2 CM (knock-in); assay: MIC by E-test; assay type: cell-based, Enterococcus faecalis; conditions: mprF2 mutant complemented by knock-in
Procedure: (§1) The minimal inhibitory concentration (MIC) of polymyxin B, nisin, HBD-3, and colistin was determined in serial dilution with a modified NCCLS method. Experiments were performed in TSB broth in 96-well microtiter tissue culture plates (Greiner). Wells were inoculated with 50-µl volumes of a suspension containing approximately 1×10^6 CFU/ml of the test organism, and concentrations were confirmed by enumeration of CFUs after serial dilution. Microtiter plates were incubated overnight at 37°C, and the MICs were defined as the lowest concentration at which visible growth was inhibited. The MIC against daptomycin was determined by E-test according to standard laboratory procedures.

[2] = tested on: 12030ΔmprF2; assay: MIC by E-test; assay type: cell-based, Enterococcus faecalis; conditions: mprF2 deletion mutant
Procedure: as §1

[3] = tested on: 12030ΔmprF1; assay: MIC by E-test; assay type: cell-based, Enterococcus faecalis; conditions: mprF1 deletion mutant
Procedure: as §1

[4] = tested on: E. faecalis 12030; assay: MIC by E-test; assay type: cell-based, Enterococcus faecalis; conditions: wild-type strain
Procedure: as §1

[5] = tested on: E. faecalis 12030 ΔmprF2; assay: MIC by serial dilution (modified NCCLS method); assay type: cell-based, Enterococcus faecalis; conditions: for Minimal inhibotory concentration: mprF2 (EF_1027) deletion mutant, serial dilution in TSB broth, 96-well plates, approx. 1×10^6 CFU/ml, overnight at 37°C, lowest concentration at which visible growth was inhibited; for fold decreased MIC of 12030ΔmprF2 compared to the wild-type strain: ratio of MIC of wild type E. faecalis 12030 to MIC of 12030ΔmprF2, from Table 1
Procedure: as §1

[6] = tested on: E. faecalis 12030; assay: MIC by serial dilution (modified NCCLS method); assay type: cell-based, Enterococcus faecalis; conditions: wild type strain; serial dilution in TSB broth, 96-well plates, approx. 1×10^6 CFU/ml, overnight at 37°C; lowest concentration at which visible growth was inhibited
Procedure: as §1

[7] = tested on: E. faecalis 12030 ΔmprF2 CM; assay: MIC by serial dilution (modified NCCLS method); assay type: cell-based, Enterococcus faecalis; conditions: mprF2 mutant complemented by knock-in of mprF2; serial dilution in TSB broth, 96-well plates, approx. 1×10^6 CFU/ml, overnight at 37°C; lowest concentration at which visible growth was inhibited
Procedure: as §1

[8] = tested on: E. faecalis 12030 ΔmprF1; assay: MIC by serial dilution (modified NCCLS method); assay type: cell-based, Enterococcus faecalis; conditions: mprF1 (EF_0031) deletion mutant; serial dilution in TSB broth, 96-well plates, approx. 1×10^6 CFU/ml, overnight at 37°C; lowest concentration at which visible growth was inhibited
Procedure: as §1

[9] = tested on: S. aureus; conditions: S. aureus MprF mutant versus wild type; cited from earlier work
From the text: In contrast to S. aureus, however, there was no effect on ...

CCCCCCCCCC(=O)N[C@@H](Cc1c[nH]c2ccccc12)C(=O)N[C@H](CC(N)=O)C(=O)N[C@@H](CC(=O)O)C(=O)N[C@@H]1C(=O)NCC(=O)N[C@@H](CCCN)C(=O)N[C@@H](CC(=O)O)C(=O)N[C@H](C)C(=O)N[C@@H](CC(=O)O)C(=O)NCC(=O)N[C@H](CO)C(=O)N[C@@H]([C@H](C)CC(=O)O)C(=O)N[C@@H](CC(=O)c2ccccc2N)C(=O)O[C@@H]1C [daptomycin]
MIC [1]: 0.25 µg/mL (≈ 0.154 µM) | MIC [2]: 0.25 µg/mL (≈ 0.154 µM) | MIC [3]: 0.25 µg/mL (≈ 0.154 µM) | MIC [4]: 0.19 µg/mL (≈ 0.117 µM)

HBD-3: cationic antimicrobial peptide (CAMP) (GIINTLQKYYCRVRGGRCAVLSCLPKEEQIGKCSTRGRKCCRRKK; ends and bridges not checked; cysteine pairing not given here; UniProt P81534 23-67, looked up)
Minimal inhibotory concentration [5]: 128 µg/mL | fold decreased MIC of 12030ΔmprF2 compared to the wild-type strain [5]: > 4 fold | Minimal inhibotory concentration [6]: >512 µg/mL

colistin
Minimal inhibotory concentration [5]: 2048 µg/mL | fold decreased MIC of 12030ΔmprF2 compared to the wild-type strain [5]: 2 fold | Minimal inhibotory concentration [6]: 4096 µg/mL

nisin (ITSISLCTPGCKTGALMGCNMKTATCHCSIHVSK; cysteine pairing not given here; also: lantibiotic nisin-A, lanthionine/dehydro residues not placed; UniProt P13068 24-57, looked up) [cationic antimicrobial peptide (CAMP)]
Minimal inhibotory concentration [5]: 1 µg/mL | fold decreased MIC of 12030ΔmprF2 compared to the wild-type strain [5]: 4 fold | Minimal inhibotory concentration [7]: 4 µg/mL | Minimal inhibotory concentration [6]: 4 µg/mL | Minimal inhibotory concentration [8]: 4 µg/mL | fold drop of the MIC on mutation of MprF in S. aureus [9]: 28 fold

polymyxin B
Minimal inhibotory concentration [5]: 256 µg/mL | fold decreased MIC of 12030ΔmprF2 compared to the wild-type strain [5]: 4 fold | Minimal inhibotory concentration [6]: 1024 µg/mL
